Results on 6 compounds are retold here after patent US5441883A, “A3 adenosine receptor, DNA, and uses” (priority 1993, dated 1995).

The target of test [1] is T1, A3 adenosine receptor (Rattus norvegicus, UniProt P28647).
T1 sequence (P28647 1-320): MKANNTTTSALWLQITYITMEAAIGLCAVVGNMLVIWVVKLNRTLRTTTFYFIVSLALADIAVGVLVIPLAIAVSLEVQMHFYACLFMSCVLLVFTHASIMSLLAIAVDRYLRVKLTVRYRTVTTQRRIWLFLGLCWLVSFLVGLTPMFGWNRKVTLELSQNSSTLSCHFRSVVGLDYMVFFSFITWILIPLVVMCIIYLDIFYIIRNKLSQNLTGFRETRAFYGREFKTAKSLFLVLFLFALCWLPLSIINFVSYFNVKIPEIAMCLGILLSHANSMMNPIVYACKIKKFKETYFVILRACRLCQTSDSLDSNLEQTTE
Nature of the test: Direct radioligand binding / Scatchard analysis, stably transfected CHO cell membranes. The following applies: for specific, high affinity binding to the A3 receptor: radiolabeled ligands. The text has this:
FIG. 3 illustrates a Scatchard plot of radioligand binding assays for the A3 adenosine receptor performed with the adenosine radioligand [^125 I]APEA and membrane preparations from stably transfected CHO cells.
The entire coding region of the A3 cDNA insert from R226 was excised from pGem226 and subcloned into either the HindIII/XbaI sites of an RC-RSV expression vector (Invitrogene, San Diego, Calif.) or the HindIII/SmaI sites of pBC12BI (Cullen, 1987, Meth. Enzym. 152: 684-704). The resulting plasmids were called Rc-RSV226 and pBC226 respectively. For transient expression in COS-7 cells, pBC226 plasmid DNA was prepared in large-scale through one cycle of CsCl gradient ultracentrifugation and 45 μg pBC226 DNA were transfected into each 150mm dish of COS-7 cells according to the method of Chen and Okayama (1987, Molec. Cell Biol. 7: 2745-2752). For stable expression in CHO cells, 1 μg Rc-RSV226 plasmid DNA isolated from a small-scale preparation was purified using the Prep-A-Gene kit (Bio-Rad) and transfected into CHO cells by the CaPO4 method (Graham and van der Eb, 1973, Virol. 52: 456-463). After transfection, cells were cultured in DMEM (COS-7 cells) or F-12 (CHO cells) media supplemented with 10% fetal calf serum in a 3% CO2 atmosphere at 37° C. For stable transfection, selection was performed with neomycin (G418; SOURCE) at a concentration of 700 μg/ml; selection was started 72 hr after transfection and continued for 3 weeks. Cell colonies were screened for expression of the A3 adenosine receptor from the R226 expression vectors described herein by Northern blot hybridization of total cellular RNA with random-primed PCR226 probe (Maniatis et al., ibid.).
(§1) Cell membranes were prepared as follows. COS-7 cells (transient expressors) were harvested 48 hrs after transfection, whereas CHO cells (stable expressors) were grown to confluence in 150 mm plates. Cells were washed twice with ice-cold HOB buffer [15 mM Tris-HCl (pH 7.4), 5 mM MgCl2, 1 mM EDTA] and scraped off plates with a rubber policeman. Cells were then collected by centrifugation at 1,200 rpm (xx g), resuspended in HOB buffer, transferred to a Dounce homogenizer on ice, and homogenized for 20 sec with a CorTarge homogenizer (Eberbach Inc., Ann Arbor, Mich.) at the #3 speed setting. The homogenate was then centrifuged at 2,000 rpm (xx g) for 10 min at 4° C. The supernatant was saved and the pellet resuspended in HOB buffer and subjected to a second round of homogenation. The second homogenate was centrifuged at 2000 rpm (xx g) for 10 min and the pellet was discarded. Supernatants were pooled and centrifuged at 34,000 rpm (xx g) for 45 min. These crude membrane pellets were resuspended in TEM buffer [50 mM Tris-HCl (pH 7.4), 5 mM MgCl2, 1 mM EDTA]. Adenosine deaminase (Sigma, St Louis, Mo.) was added to the membrane suspensions to a concentration of 2 Units/ml and incubated at 37° C. for 30 min. The membrane suspension was subsequently recentrifuged at 34,000 rpm (xx g) for 45 min. The resulting pellet was resuspended in TEM buffer at a protein concentration of about 1 mg/ml and stored in small aliquots at -70° C. The protein concentration was measured according to the method of Lowry et al. (1954, J. Biol. Chem. 207: 1-XXX) using bovine serum albumin as a standard.
Radioligand binding assays were carried out in duplicate in 500 μl of a solution containing (at final concentrations) 50 mM Tris-HCl (pH 7.4), 5 mM MgCl2, 1 mM EDTA, 0.025 % ascorbic acid, radioligands, and appropriate drugs. […] ([aH]XAC), [^3 H]-labeled 2-[4-(2-[(4-aminophenyl)methylcarbobylamino]ethylaminocarbonyl)ethyl)phenyl]ethylamino-5'-N-ethylcarboxamidoadenosine ([^3 H]PAPA-APEC), and [^3 H]-labeled [2-(4-(2-carboxyethyl)phenylethyamino)5'-N-ethylcarboxamidoadenosine ([^3 H]CGS21680). Receptor binding was initiated by the addition of membrane preparations in an amount equivalent to 20-100 μg protein, and carried out at 37° C. for 1 hr.

The target in test [2] is T1, A3 adenosine receptor. In words: biochemical. The following applies: for ability to compete with [125I]APNEA for A3 receptor binding: 100 μM. In kind it is binding. Here is the method:
FIGS. 4A and 4B illustrates competitive binding assays using stably transfected CHO cell membrane preparations.
as §1
Radioligand binding assays were carried out in duplicate in 500 μl of a solution containing (at final concentrations) 50 mM Tris-HCl (pH 7.4), 5 mM MgCl2, 1 mM EDTA, 0.025 % ascorbic acid, radioligands, and appropriate drugs. […] ([aH]XAC), [^3 H]-labeled 2-[4-(2-[(4-aminophenyl)methylcarbobylamino]ethylaminocarbonyl)ethyl)phenyl]ethylamino-5'-N-ethylcarboxamidoadenosine ([^3 H]PAPA-APEC), and [^3 H]-labeled [2-(4-(2-carboxyethyl)phenylethyamino)5'-N-ethylcarboxamidoadenosine ([^3 H]CGS21680). Receptor binding was initiated by the addition of membrane preparations in an amount equivalent to 20-100 μg protein, and carried out at 37° C. for 1 hr. Nonspecific binding was determined in the presence of 10 μM R-N^6 -phenyl-2-propyladenosine (R-PIA). After incubation, samples were filtered through glass fiber filters (Schleicher and Schuell #32) and washed three times with 4 ml ice-cold 10 mM TrisoHCl (pH 7.4). Radioactivity retained on the filters were counted using a Beckman LS6800 scintillation counter (Beckman Instruments, Palo Alto, Calif.). […] A LIGAND computer program was used for data analysis and curve fitting (Munson & Rodband, 1980, Anal. Biochem. 107: 220-225).
The A3 receptor was then characterized using competition assays between [^125 I]APNEA A3 receptor binding versus a series of other adenosine receptor ligands. Labeled APNEA was present in these assays at 0.5 nM; unlabled competitors were present at varying concentrations as shown in FIG. 4A.

For test [3], the target named is T1, A3 adenosine receptor. In words: cell-based. In kind it is cell-based. On the procedure:
The concentrations of adenosine agonists used are 100 nM and the concentration of forskolin is 1 μM. Values are obtained from triplicate plates and shown as mean ±S.E.
The cell were not or pretreated with 100 ng/ml pertussis toxin for 18 hours. The concentration of forskolin and adenosine agonists used are as in FIG. 5.
It is known that the A 1 adenosine receptor inhibits adenylate cyclase activity and the A2 adenosine receptor stimulates adenylate cyclase respectively (Stiles, ibid.; Williams, ibid.).
(§2) Cells were grown to about 80% confluence in 150 mm dishes, washed twice with Ca^++ and Mg^++ -free PBS buffer and detached from plates with PBS buffer containing 0.02% EDTA. Cells were collected by centrifugation at 800 rpm (xx g) for 10 min at 4° C. and resuspended in an appropriate volume of KRH buffer [140 mM NaCl, 5 mM KCl , 2 mM CaCl2, 1.2 mM MgSO4, 1.2 mM KH2 PO4, 6 mM glucose, 25 mM Hepes-NaOH (pH 7.4)]. The cells were washed once with KRH buffer and resuspended in KRH buffer at a concentration of 10^7 cells/ml. Each of 100 μl aliquots of this cell suspension were added to a glass tube containing 100 μl KRH+200 μM Ro 20-1724 and incubated at 37° C. for 10 min. Prewarmed 200 μl KRH containing 200 μm Ro 20-1724 and test drugs were then added to the cells and mixed. After incubation at 37° C. for 20 min, 400 μl 10.5 mM NaAc (pH 6.2) were added and the glass tubes transferred to a boiling water bath. The incubated cell suspension were boiled for 20 min, and the tubes were then cooled to room temperature and centrifuged at 3000 rpm (xx g) for 15 min.
For experiments using pertussis toxin pretreatment, aseptic pertussis toxin (Sigma Chemical Co., St. Louis, Mo.) was dissolved in sterile water and added to the medium to a final concentration of 100 ng/ml. Toxin treatment was maintained for approximately 18 hours. The dishes were rinsed once with media immediately prior to the addition of adenosine receptor ligands and processed as described above.

Test [4] has as its system cellular cAMP levels. Nature of the test: Cellular cAMP levels after forskolin in wild type and stably transfected CHO cells. The following applies: Cricetulus griseus, 20 min, read-out: increase in cellular cAMP levels, 1 μM forskolin. In kind it is cell-based, Chinese hamster. On the procedure:
as §2
Background: Changes in cAMP serve as a functional read-out for many G protein-coupled receptors.

For test [5], the target named is T1, A3 adenosine receptor. In kind it is cell-based. The following applies: 1 μM forskolin; 100 μM adenosine.
The mark [6] stands for this setting: stably transfected CHO membranes.

Read-outs that look alike come from different tables or passages of the source.

Consider `CCCn1c(=O)c2[nH]c(-c3ccc(OCC(=O)NCCN)cc3)nc2n(CCC)c1=O` [XAC], for which the “specific, high affinity binding to the A3 receptor” value (“specific, high affinity binding” for short) in test [1] (setting [6]) was “The only adenosine receptor ligand to show specific, high affinity binding to the A3 receptor was the A1 selective agonist [^125 I]APNEA”. Besides, the “ability to compete with [125I]APNEA for A3 receptor binding” value in test [2] is reported as “none of the methylxanthines tested were capable of competing with labeled APNEA”.
As a reminder, the EC50 is the concentration giving half of the maximal effect. With `CCNC(=O)[C@H]1O[C@@H](n2cnc3c(N)nc(NCCc4ccc(CCC(=O)O)cc4)nc32)[C@H](O)[C@@H]1O` [CGS21680], the “specific, high affinity binding” value in test [1] (setting [6]) is “The only adenosine receptor ligand to show specific, high affinity binding to the A3 receptor was the A1 selective agonist [^125 I]APNEA”. Moreover, in test [3], it took 0.144 ± 0.034 µM to reach a half-maximal effect (EC50). Further, in test [3] (1 μM forskolin, 100 nM agonist), the “inhibition of forskolin-stimulated cAMP accumulation” value is listed as 20-50%. In addition, the “maximum inhibition of cAMP production” value in test [3] (of control values) is given as 40-50%.
Turning to `CCCn1c(=O)c2[nH]c(C3CCCC3)nc2n(CCC)c1=O` [DPCPX, 1,3-dipropyl-8-cyclopentylxanthine], the “specific, high affinity binding” value in test [1] (setting [6]) was “The only adenosine receptor ligand to show specific, high affinity binding to the A3 receptor was the A1 selective agonist [^125 I]APNEA”; in test [1] (stably transfected CHO membranes, listed as [^3 H]DPCPX), “does not bind to the A3 adenosine receptor”. The “ability to compete with [125I]APNEA for A3 receptor binding” value in test [2] is given as “none of the methylxanthines tested were capable of competing with labeled APNEA”. In addition, the “reversal of inhibitory effect of NECA on forskolin-stimulated cAMP production” value in test [3] (10 nM DPCPX) is on record as “could not be reversed”.
For orientation: Kd means the concentration at which binding is half-saturated. `Nc1ccc(CCNc2ncnc3c2ncn3[C@@H]2O[C@H](CO)[C@@H](O)[C@H]2O)cc1I` [APNEA, N^6-2-(4-amino-3-iodo-phenyl) ethyladenosine]: the “saturable binding (Scatchard plot)” value in test [1] ([125I]APNEA, stably transfected CHO membranes) is 225 fmol/mg. For the same compound, the Kd in test [1] ([125I]APNEA, stably transfected CHO membranes, read-out: Kd (Scatchard plot analysis)) worked out at 0.0155 ± 0.0024 µM. Besides, the “affinity at A3 compared with other, well-characterized A1 receptors” value in test [1] (comparison with literature A1 receptors (Stiles et al., 1985)) is “about ten-fold lower”. Further, the “specific, high affinity binding” value was “saturable and high affinity binding” in test [1] (setting [6]); “only adenosine receptor ligand to show specific, high affinity binding to the A3 receptor” in test [1] (stably transfected CHO membranes, listed as [^125 I]APNEA).
`C=C[C@@]1(C)CC(=O)[C@]2(O)[C@@]3(C)[C@@H](O)CCC(C)(C)[C@@H]3[C@H](O)[C@H](OC(C)=O)[C@@]2(C)O1` [forskolin]: the fold induction at 1 µM in test [4] is 15.
As a reminder, the IC50 is the midpoint of a concentration-inhibition curve. Read a high IC50 as lower potency. As for `Nc1ncnc2c1ncn2[C@@H]1O[C@H](CO)[C@@H](O)[C@H]1O` [Adenosine, adenosine], in test [2], the “affinity relative to nucleotides” value is on record as “much higher affinity than ATP, ADP, AMP, cAMP or UTP”. Further, the IC50 in test [2] (Table I and text, 0.5 nM [125I]APNEA) stood at 30 ± 4 µM. Besides, the “pharmacological profile of inhibition of [125I]APNEA binding” value in test [2] (rank order) is on record as “R-PIA=NECA>S-PIA>adenosine>ATP=ADP”. The same compound gave a concentration giving a half-maximal response (EC50) in test [3] (Table II) of 6.5 ± 2.1 µM. In test [3] (at the concentrations tested), the “maximal effect on cAMP production” value was “does not reach its maximal effect at the concentrations tested”. Moreover, in test [5], the “inhibition of forskolin-stimulated cAMP accumulation” value was 20-50%.
